# According to ChEMBL document CHEMBL6182851, “Discovery of dual CDK4/6 and BRD4 inhibitor as apoptosis and autophagy inducers against NSCLC in vitro and in vivo” (Eur J Med Chem, 2025):
# Calls of active or inactive are those of the source. The rule behind the calls is not given here.
# How the values were obtained:
# A549 = experiment: cells; details: Homo sapiens, A549, 48 h
# Description: Antitumor activity against human A549 cells assessed as inhibition of cell viability incubated for 48 hrs by MTT assay
# NCI-H460 [1] = experiment: Antiproliferative activity against human NCI-H460 cells assessed as decrease in p-Rb expression at 2 to 8 uM treated for 24 hrs by immunofluorescence analysis; format: functional, cell-based; details: dose 2-8 µM
# NCI-H460 [2] = experiment: Antitumor activity against human NCI-H460 cells xenografted in female BALB/c nude mouse at 25 mg/kg, ip administered for 21 consecutive days; format: functional, organism-based; details: time 21.0 day
# NCI-H460 [3] = experiment: Antitumor activity against human NCI-H460 cells xenografted in female BALB/c nude mouse assessed as tumor growth inhibition at 50 mg/kg, ip administered for 21 consecutive days relative to control; format: functional; details: NCI-H460, 504 h, time 21 day, read-out: TGI
# [4] = Toxicity in mouse assessed as histological change in spleen at 400 mg/kg, ip measured for 21 days by H and E staining based analysis; format: organism-based; details: in vivo, 504 h, time 21 day
# NCI-H460 [5] = experiment: Induction of autophagy in human NCI-H460 cells assessed as increase in yellow fluorescence incubated for 24 hrs by immunofluorescence analysis; format: functional, cell-based; details: dose 2-8 µM
# NCI-H460 [6] = experiment: Induction of autophagy in human NCI-H460 cells assessed as decrease in P62 expression at 2 to 8 uM incubated for 48 hrs by Western blotting analysis; format: functional, cell-based; details: dose 2-8 µM
# NCI-H460 [7] = experiment: Induction of autophagy in human NCI-H460 cells assessed as increase in acidic vesicles incubated for 48 hrs by MDC staining and LC3B immunofluorescence analysis; format: functional, cell-based; details: dose 2-8 µM
# NCI-H460 [8] = experiment: Induction of autophagy in human NCI-H460 cells assessed as reduction in intracellular AKT protein expression; format: functional, cell-based
# NCI-H460 [9] = experiment: Induction of apoptosis in human NCI-H460 cells assessed as late apoptotic cells at 2 uM incubated for 48 hrs by Annexin V-PE/7-AAD staining based flow cytometric analysis (reference value: 3.76 %); format: functional
# [10] = Toxicity in mouse assessed as histological change in lung at 400 mg/kg, ip measured for 21 days by H and E staining based analysis; format: organism-based; details: in vivo, 504 h, time 21 day
# NCI-H460 [11] = experiment: Induction of apoptosis in human NCI-H460 cells assessed as early apoptotic cells at 2 uM incubated for 48 hrs by Annexin V-PE/7-AAD staining based flow cytometric analysis (reference value: 3.58 %); format: functional
# [12] = Half life in male Sprague-Dawley rat at 5 mg/kg, iv measured up to 24 hrs by LC-MS/MS analysis; format: ADME, organism-based; details: in vivo
# [13] = AUC (0 to t) in male Sprague-Dawley rat at 5 mg/kg, iv measured up to 24 hrs by LC-MS/MS analysis; format: ADME, organism-based; details: in vivo
# NCI-H460 [14] = experiment: Induction of cell cycle arrest in human NCI-H460 cells assessed as accumulation of cells at G1 phase at 8 uM incubated for 48 hrs by PI staining based flow cytometric analysis (reference value: 56.7 %); format: functional
# NCI-H460 [15] = experiment: Induction of autophagy in human NCI-H460 cells assessed as increase in autophagic vesicles at 4 uM incubated for 24 hrs by transmission electron microscopic analysis; format: functional, cell-based
# NCI-H460 [16] = experiment: Antiproliferative activity against human NCI-H460 cells assessed as reduction in EdU positive cells incubated for 24 hrs by EdU incorporation assay; format: functional, cell-based; details: dose 2-8 µM
# [17] = C0 in male Sprague-Dawley rat at 5 mg/kg, iv measured up to 24 hrs by LC-MS/MS analysis; format: ADME, organism-based; details: in vivo
# L02 = experiment: Cytotoxicity against human LO2 cells measured up to 8 days; format: toxicity, cell-based; details: l02, 192 h, time < 8 day
# NCI-H460 [18] = experiment: Induction of apoptosis in human NCI-H460 cells assessed as early apoptotic cells at 4 uM incubated for 48 hrs by Annexin V-PE/7-AAD staining based flow cytometric analysis (reference value: 3.58 %); format: functional
# NCI-H460 [19] = experiment: Antitumor activity against human NCI-H460 cells xenografted in female BALB/c nude mouse assessed as decrease in Ki67-positive cells at 50 mg/kg, ip administered for 21 consecutive days by immunohistochemical analysis; format: functional, organism-based; details: time 21.0 day
# [20] = Toxicity in mouse assessed as animal mortality at 100 to 400 mg/kg, ip measured for 21 days; format: organism-based; details: in vivo, 504 h, dose 100-400 mg/kg, time 21 day
# NCI-H460 [21] = experiment: Induction of apoptosis in human NCI-H460 cells assessed as necrotic cells at 2 uM incubated for 48 hrs by Annexin V-PE/7-AAD staining based flow cytometric analysis (reference value: 0.79 %); format: functional
# NCI-H460 [22] = experiment: cells; details: Homo sapiens, NCI-H460, 48 h
# Description: Antitumor activity against human NCI-H460 cells assessed as inhibition of cell viability incubated for 48 hrs by MTT assay
# [23] = Toxicity in mouse assessed as histological change in heart at 400 mg/kg, ip measured for 21 days by H and E staining based analysis; format: organism-based; details: in vivo, 504 h, time 21 day
# NCI-H460 [24] = experiment: Induction of autophagy in human NCI-H460 cells assessed as suspension of dead cells incubated for 12 hrs by microscopic analysis; format: functional, cell-based
# NCI-H460 [25] = experiment: Induction of cell cycle arrest in human NCI-H460 cells assessed as accumulation of cells at S phase at 2 uM incubated for 48 hrs by PI staining based flow cytometric analysis (reference value: 33.3 %); format: functional
# NCI-H460 [26] = experiment: Induction of autophagy in human NCI-H460 cells assessed as reduction in intracellular mTOR protein expression; format: functional, cell-based
# [27] = Toxicity in mouse assessed as histological change in liver at 400 mg/kg, ip measured for 21 days by H and E staining based analysis; format: organism-based; details: in vivo, 504 h, time 21 day
# NCI-H460 [28] = experiment: Induction of apoptosis in human NCI-H460 cells assessed as late apoptotic cells at 4 uM incubated for 48 hrs by Annexin V-PE/7-AAD staining based flow cytometric analysis (reference value: 3.76 %); format: functional
smiles,measurement,setting,value
COc1cc(-c2nc3ccc(F)cc3c(=O)[nH]2)cc(OC)c1OCC(=O)N1CCN(c2ccc(Nc3ncc4cc(C(=O)N(C)C)n(C5CCCC5)c4n3)nc2)CC1,IC50,A549,4.59 µM
same,Activity,NCI-H460 [1],Active
same,Activity,NCI-H460 [2],Active
same,inhibition in vivo at 50 mg/kg,NCI-H460 [3],85.3%
same,Activity,[4],Non-toxic
same,Activity,NCI-H460 [5],Dose-dependent-effect
same,Activity,NCI-H460 [6],Active
same,Activity,NCI-H460 [7],Dose-dependent-effect
same,Activity,NCI-H460 [8],Dose-dependent-effect
same,Activity,NCI-H460 [9],4.55%
same,Activity,[10],Non-toxic
same,Activity,NCI-H460 [11],9.06%
same,half-life,[12],7.42 h
same,AUC(0-t) at 24 h,[13],3780 ng·h/mL
same,Activity,NCI-H460 [14],80.8%
same,Activity,NCI-H460 [15],Active
same,Activity,NCI-H460 [16],Dose-dependent-effect
same,C0 at 24 h,[17],6000 ng/mL
same,Activity,L02,Non-toxic
same,Activity,NCI-H460 [18],8.81%
same,Activity,NCI-H460 [19],Active
same,Activity,[20],Non-toxic
same,Activity,NCI-H460 [21],1.6%
same,IC50,NCI-H460 [22],2.21 µM
same,Activity,[23],Non-toxic
same,Activity,NCI-H460 [24],Active; Minor Suspension Was Observed
same,Activity,NCI-H460 [25],27%
same,Activity,NCI-H460 [26],Dose-dependent-effect
same,Activity,[27],Non-toxic
same,Activity,NCI-H460 [28],6.56%
